This note sets out measurements from patent US10508120B2, “TYK2 inhibitors and uses thereof” (Nimbus Lakshmi, Inc., priority 2017, dated 2019).

pIC50, pKd: −log10 of the molar value. Like-named read-outs stand apart in the source and are kept apart here. Some results are limits rather than exact numbers.

In assay [1] the target is human TYK2 (JH2domain-pseudokinase) (Homo sapiens (Human), UniProt P29597). Nature of the assay: TYK2 JH2 Domain Binding Assay (KINOMEscan). Put shortly: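 Pseudokinase domain binding was measured by qPCR of tagged, bead-retained kinase after 1 h room-temperature competition, with 0.9% DMSO and compound up to 30,000 nM in 3-fold steps. Hill-equation Kd, duplicate.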
In assay [2] the target is Tyk2/JAK2 (heterodimeric complex) (Homo sapiens (Human), UniProt P29597). The assay is described as follows: IL-12 Induced pSTAT4 in Human PBMC. It is filed as cell-based. Conditions: 1.7 ng/mL IL-12. The text has this: The IL-12 Induced pSTAT4 assay evaluates the inhibition of IL-12 induced STAT4 phophorylation mediated by Tyk2/JAK2 (heterodimeric complex).
For assay [3], the target named is JAK2/JAK2 homdimeric complex (Homo sapiens (Human), UniProt O60674). The assay is described as follows: GM-CSF Induced pSTAT5 in Human PBMC. The class given is cell-based. To be noted: GM-CSF 5 ng/mL for 20 minutes, pSTAT5 by MSD, read-out: PBMC_GMCSF_pSTAT5 IC50.
For assay [4], the target named is Tyk2 kinase domain (DH1) (Homo sapiens (Human), UniProt P29597). Nature of the assay: Tyk2 Radioactive Kinase Assay. It is filed as biochemical. Conditions: for inhibition at 10 µM: read-out: Tyk2 JH1% Inhibition @ 10 μM. An outline of the steps: (§1)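 Read-out is percent inhibition from a radioactive kinase reaction, measured with compound at 10 μM.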
The target of assay [5] is JAK2 kinase domain (JH1) (Homo sapiens (Human), UniProt O60674). The assay is described as follows: JAK2 Radioactive Kinase Assay. The class given is biochemical. To be noted: for inhibition at 10 µM: read-out: JAK2 JH1% Inhibition @ 10 μM. Put shortly:
as §1

Sequence of Tyk2 kinase domain (DH1) (P29597 897-1176): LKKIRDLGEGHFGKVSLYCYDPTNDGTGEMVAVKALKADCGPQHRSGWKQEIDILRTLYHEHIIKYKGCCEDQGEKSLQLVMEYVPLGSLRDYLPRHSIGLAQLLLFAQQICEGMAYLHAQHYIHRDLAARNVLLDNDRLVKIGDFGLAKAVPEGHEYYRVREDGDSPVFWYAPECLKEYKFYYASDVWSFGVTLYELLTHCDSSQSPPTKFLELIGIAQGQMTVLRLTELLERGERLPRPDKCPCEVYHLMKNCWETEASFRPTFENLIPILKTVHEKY
Sequence of JAK2 kinase domain (JH1) (O60674 849-1124): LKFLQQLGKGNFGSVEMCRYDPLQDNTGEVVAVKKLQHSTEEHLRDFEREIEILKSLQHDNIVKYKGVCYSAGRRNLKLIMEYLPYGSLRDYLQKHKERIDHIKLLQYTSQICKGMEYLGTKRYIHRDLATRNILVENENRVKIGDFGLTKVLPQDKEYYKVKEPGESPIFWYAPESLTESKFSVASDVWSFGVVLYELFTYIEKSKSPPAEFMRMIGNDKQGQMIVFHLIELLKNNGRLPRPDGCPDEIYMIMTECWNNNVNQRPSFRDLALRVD
Sequence of Tyk2/JAK2 (heterodimeric complex) (P29597 whole entry, other chains not shown): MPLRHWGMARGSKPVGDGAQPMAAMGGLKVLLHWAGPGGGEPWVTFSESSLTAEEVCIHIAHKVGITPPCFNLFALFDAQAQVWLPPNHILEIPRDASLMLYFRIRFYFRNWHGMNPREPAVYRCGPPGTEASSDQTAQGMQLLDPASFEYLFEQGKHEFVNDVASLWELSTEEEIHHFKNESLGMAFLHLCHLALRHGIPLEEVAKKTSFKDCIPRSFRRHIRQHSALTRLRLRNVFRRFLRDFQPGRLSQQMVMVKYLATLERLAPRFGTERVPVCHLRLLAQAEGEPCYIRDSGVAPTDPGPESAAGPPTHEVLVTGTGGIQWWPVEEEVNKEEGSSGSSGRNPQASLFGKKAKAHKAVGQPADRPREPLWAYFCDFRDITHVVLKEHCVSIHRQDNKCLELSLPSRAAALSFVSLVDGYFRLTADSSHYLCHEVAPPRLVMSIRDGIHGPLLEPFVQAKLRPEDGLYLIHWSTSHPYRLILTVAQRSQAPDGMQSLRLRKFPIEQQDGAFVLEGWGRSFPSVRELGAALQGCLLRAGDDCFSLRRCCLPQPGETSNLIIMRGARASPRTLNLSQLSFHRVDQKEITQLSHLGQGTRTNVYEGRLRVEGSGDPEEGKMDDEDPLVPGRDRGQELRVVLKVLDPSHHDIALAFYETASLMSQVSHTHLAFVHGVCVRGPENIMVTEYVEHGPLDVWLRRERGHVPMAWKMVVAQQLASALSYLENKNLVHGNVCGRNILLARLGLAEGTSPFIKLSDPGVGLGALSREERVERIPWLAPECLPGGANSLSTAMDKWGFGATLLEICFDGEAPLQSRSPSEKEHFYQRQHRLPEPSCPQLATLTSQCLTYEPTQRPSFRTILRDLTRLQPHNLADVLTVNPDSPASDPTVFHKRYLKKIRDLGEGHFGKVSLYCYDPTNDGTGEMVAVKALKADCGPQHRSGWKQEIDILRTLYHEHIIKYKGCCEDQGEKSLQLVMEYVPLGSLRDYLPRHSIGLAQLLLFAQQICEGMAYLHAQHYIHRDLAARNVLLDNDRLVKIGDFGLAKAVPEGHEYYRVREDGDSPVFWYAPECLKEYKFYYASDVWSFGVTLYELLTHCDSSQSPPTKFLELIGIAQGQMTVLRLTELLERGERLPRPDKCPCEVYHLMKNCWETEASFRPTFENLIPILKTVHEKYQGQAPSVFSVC
Sequence of JAK2/JAK2 homdimeric complex (O60674 whole entry, the tested form may be a part): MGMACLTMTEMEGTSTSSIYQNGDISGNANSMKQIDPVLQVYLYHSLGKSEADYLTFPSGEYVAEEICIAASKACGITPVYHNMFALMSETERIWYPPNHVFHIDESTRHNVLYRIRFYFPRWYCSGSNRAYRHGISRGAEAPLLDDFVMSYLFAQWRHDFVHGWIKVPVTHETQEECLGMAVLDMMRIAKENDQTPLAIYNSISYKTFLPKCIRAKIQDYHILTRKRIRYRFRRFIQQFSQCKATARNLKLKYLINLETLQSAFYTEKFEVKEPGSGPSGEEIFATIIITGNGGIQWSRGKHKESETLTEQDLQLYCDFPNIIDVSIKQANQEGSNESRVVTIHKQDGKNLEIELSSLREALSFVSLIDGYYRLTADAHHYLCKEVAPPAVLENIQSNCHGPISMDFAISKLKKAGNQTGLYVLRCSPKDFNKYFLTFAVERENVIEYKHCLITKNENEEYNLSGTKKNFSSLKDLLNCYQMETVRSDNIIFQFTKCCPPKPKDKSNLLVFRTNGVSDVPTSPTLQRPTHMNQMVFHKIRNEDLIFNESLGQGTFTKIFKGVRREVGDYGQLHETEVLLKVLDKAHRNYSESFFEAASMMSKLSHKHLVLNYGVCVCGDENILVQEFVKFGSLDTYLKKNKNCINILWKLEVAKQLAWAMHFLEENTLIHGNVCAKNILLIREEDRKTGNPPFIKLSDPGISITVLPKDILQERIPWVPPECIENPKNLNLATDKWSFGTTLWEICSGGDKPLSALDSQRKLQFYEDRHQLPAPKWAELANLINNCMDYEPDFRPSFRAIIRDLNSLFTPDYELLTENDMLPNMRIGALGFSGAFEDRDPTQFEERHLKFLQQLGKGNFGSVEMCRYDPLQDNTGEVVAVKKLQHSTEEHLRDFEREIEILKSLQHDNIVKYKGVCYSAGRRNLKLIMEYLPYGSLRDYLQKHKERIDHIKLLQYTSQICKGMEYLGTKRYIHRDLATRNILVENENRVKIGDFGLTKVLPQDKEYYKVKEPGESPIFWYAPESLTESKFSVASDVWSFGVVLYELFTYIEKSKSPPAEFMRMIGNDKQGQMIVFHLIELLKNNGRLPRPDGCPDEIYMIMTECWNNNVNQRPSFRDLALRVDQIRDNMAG
Sequence of JAK2/JAK2 homdimeric complex (P32927 17-897 partner): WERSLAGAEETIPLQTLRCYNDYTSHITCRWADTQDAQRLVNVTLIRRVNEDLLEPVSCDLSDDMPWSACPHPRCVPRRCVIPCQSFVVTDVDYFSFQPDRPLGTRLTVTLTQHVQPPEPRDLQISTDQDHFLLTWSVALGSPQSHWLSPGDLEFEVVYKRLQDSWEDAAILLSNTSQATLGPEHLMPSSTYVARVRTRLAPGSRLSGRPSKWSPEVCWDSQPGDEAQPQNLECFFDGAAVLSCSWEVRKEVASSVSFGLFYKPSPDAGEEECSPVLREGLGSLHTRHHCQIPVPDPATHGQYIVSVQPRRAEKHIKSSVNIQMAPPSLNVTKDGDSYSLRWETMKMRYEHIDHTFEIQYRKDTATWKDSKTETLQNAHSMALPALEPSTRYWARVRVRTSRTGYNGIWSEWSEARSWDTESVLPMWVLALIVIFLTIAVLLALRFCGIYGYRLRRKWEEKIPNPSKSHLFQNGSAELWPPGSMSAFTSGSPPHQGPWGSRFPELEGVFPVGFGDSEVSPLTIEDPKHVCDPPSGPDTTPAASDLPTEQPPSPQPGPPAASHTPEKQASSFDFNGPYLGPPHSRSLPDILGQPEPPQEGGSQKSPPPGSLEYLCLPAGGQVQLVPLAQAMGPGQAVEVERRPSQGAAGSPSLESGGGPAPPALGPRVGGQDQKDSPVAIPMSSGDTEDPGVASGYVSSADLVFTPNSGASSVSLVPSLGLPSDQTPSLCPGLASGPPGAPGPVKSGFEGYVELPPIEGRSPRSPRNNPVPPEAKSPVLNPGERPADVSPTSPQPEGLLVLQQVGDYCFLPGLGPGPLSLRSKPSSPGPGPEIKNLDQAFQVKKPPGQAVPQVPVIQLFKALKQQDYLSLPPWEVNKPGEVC
Sequence of human TYK2 (JH2domain-pseudokinase) (P29597 556-888): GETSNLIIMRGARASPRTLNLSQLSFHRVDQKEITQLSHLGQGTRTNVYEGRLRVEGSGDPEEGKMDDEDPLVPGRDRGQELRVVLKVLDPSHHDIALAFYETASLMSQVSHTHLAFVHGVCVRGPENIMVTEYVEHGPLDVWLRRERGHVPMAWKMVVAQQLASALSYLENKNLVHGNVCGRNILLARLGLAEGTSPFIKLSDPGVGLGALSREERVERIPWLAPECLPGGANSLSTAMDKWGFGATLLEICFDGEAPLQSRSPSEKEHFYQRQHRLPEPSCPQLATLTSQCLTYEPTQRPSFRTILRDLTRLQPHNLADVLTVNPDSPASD

For `CNc1cc(Nc2cccc(C)c2Cl)nc2c(C(N)=O)cnn12` [I-14], the pKd in assay [1] was greater than 9.70. The figures for the pIC50 in assay [2] and in assay [3] were greater than 7.00 and less than 4.30, respectively.
For `CNc1cc(Nc2cccnc2OC2CC2)nc2c(C(=O)N[C@H]3CC[C@@H]3O)cnn12` [I-397], in assay [4] (compound at 10 μM, ATP 10 μM), the “Tyk2 JH1% Inhibition @ 10 μM” value is reported as “A (percent inhibition at 10 μM lower than 50)”. Also, in assay [5] (compound at 10 μM, ATP 10 μM), the “JAK2 JH1% Inhibition @ 10 μM” value is given as “A (percent inhibition at 10 μM lower than 50)”. The pIC50 in assay [2] is greater than 7.00; in assay [3], less than 4.30.
With `[2H]C([2H])([2H])Oc1ncccc1Nc1cc(NC)n2ncc(C(=O)NC3CC4(COC4)C3)c2n1` [I-417, 5-((2-(methoxy-d3)pyridin-3-yl)amino)-7-(methylamino)-N-(2-oxaspiro[3.3]heptan-6-yl)pyrazolo[1,5-a]pyrimidine-3-carboxamide], the inhibition at 10 µM is less than 50% in assay [4] (compound at 10 μM, ATP 10 μM) and less than 50% in assay [5] (compound at 10 μM, ATP 10 μM). Moreover, the negative logarithm of the IC50 (pIC50) is 6.30 to 7.00 in assay [2] and less than 4.30 in assay [3].
`CNc1cc(Nc2cccc(C3CCCOC3)n2)nc2c(C(=O)N[C@@H]3C[C@@H]3F)cnn12` (some centres unmarked) [I-522] showed a negative-log Kd (pKd) in assay [1] greater than 9.70. The pIC50 in assay [2] is greater than 7.00; in assay [3], less than 4.30.
Take `CNc1cc(Nc2cccn([C@@H]3CCC[C@H](OC)C3)c2=O)nc2c(C(=O)NC3CC3)cnn12` [I-621]: in assay [4] (compound at 10 μM, ATP 10 μM), the “Tyk2 JH1% Inhibition @ 10 μM” value is reported as “A (percent inhibition at 10 μM lower than 50)”. The “JAK2 JH1% Inhibition @ 10 μM” value in assay [5] (compound at 10 μM, ATP 10 μM) was “A (percent inhibition at 10 μM lower than 50)”. Also, the negative logarithm of the IC50 (pIC50) in assay [2] was greater than 7.00; in assay [3], less than 4.30.
For `CNc1cc(Nc2cccn(-c3nc(C)co3)c2=O)nc2c(C(=O)N[C@@H]3CC[C@@H]3O)cnn12` [I-706], the “Tyk2 JH1% Inhibition @ 10 μM” value in assay [4] (compound at 10 μM, ATP 10 μM) is “A (percent inhibition at 10 μM lower than 50)”. Also, the “JAK2 JH1% Inhibition @ 10 μM” value in assay [5] (compound at 10 μM, ATP 10 μM) is listed as “A (percent inhibition at 10 μM lower than 50)”. Further, the pIC50 in assay [2] is greater than 7.00; in assay [3], less than 4.30.
For the molecule `CNc1cc(Nc2cccc3ocnc23)nc2c(C(=O)N[C@H]3COC[C@H]3O)cnn12` [I-834], the inhibition at 10 µM was less than 50% in assay [4] (10 μM compound, 10 μM ATP) and less than 50% in assay [5] (10 μM compound, 10 μM ATP). For the same molecule, the results for the pIC50 in assay [2] and in assay [3] were 6.30 to 7.00 and less than 4.30, respectively.
For `CNc1cc(-c2cn(CCN3CCCCC3)c3ncccc23)nc2c(C(=O)N[C@@H]3CC[C@H]3O)cnn12` [I-837], the inhibition at 10 µM in assay [4] (10 μM compound, 10 μM ATP) is less than 50%; in assay [5] (10 μM compound, 10 μM ATP), less than 50%. The negative-log IC50 (pIC50) in assay [2] was greater than 7.00; in assay [3], less than 4.90.
Take `CNc1cc(Nc2cccc3ocnc23)nc2c(C(=O)N[C@@H]3CC[C@H]3O)cnn12` [I-857]: the inhibition at 10 µM in assay [4] (10 μM compound, 10 μM ATP) was less than 50%; in assay [5] (10 μM compound, 10 μM ATP) it was less than 50%. The pIC50 in assay [2] was 6.30 to 7.00; in assay [3] it was less than 4.30.
With `CNc1cc(Nc2cccn([C@H]3CC[C@@H]3O)c2=O)nc2c(C(=O)N[C@@H]3C[C@@H]3F)cnn12` [I-916], the inhibition at 10 µM is less than 50% in assay [4] (10 μM compound, 10 μM ATP) and less than 50% in assay [5] (10 μM compound, 10 μM ATP). Also, the pIC50 in assay [2] is greater than 7.00; in assay [3], less than 4.30.
In the case of `CNc1cc(Nc2cccn(C3CCCCC3)c2=O)nc2c(C(=O)N[C@@H]3CC[C@H]3O)cnn12` [I-943], the inhibition at 10 µM in assay [4] (10 μM compound, 10 μM ATP) is less than 50%; in assay [5] (10 μM compound, 10 μM ATP), less than 50%. For the same molecule, the results for the pIC50 in assay [2] and in assay [3] were greater than 7.00 and less than 4.30, respectively.
As for `CNc1cc(Nc2cccn(-c3cccc(F)c3)c2=O)nc2c(C(=O)N[C@@H]3CC[C@H]3O)cnn12` [I-946], the “Tyk2 JH1% Inhibition @ 10 μM” value in assay [4] (10 μM compound, 10 μM ATP) was “A (percent inhibition at 10 μM lower than 50)”. In addition, the “JAK2 JH1% Inhibition @ 10 μM” value in assay [5] (10 μM compound, 10 μM ATP) is “A (percent inhibition at 10 μM lower than 50)”. The pIC50 in assay [2] was greater than 7.00; in assay [3] it was less than 4.30.
Turning to `CNc1cc(-c2cn(CCN3CCN(C)CC3)c3ncccc23)nc2c(C(=O)N[C@H]3CC[C@@H]3OC)cnn12` [I-952], in assay [4] (10 μM compound, 10 μM ATP), the “Tyk2 JH1% Inhibition @ 10 μM” value is on record as “A (percent inhibition at 10 μM lower than 50)”. Also, the “JAK2 JH1% Inhibition @ 10 μM” value in assay [5] (10 μM compound, 10 μM ATP) is listed as “A (percent inhibition at 10 μM lower than 50)”. The pIC50 in assay [2] is 6.30 to 7.00; in assay [3] it was less than 5.60.
